In ChEMBL document CHEMBL1147996, “Synthesis and biological evaluation of phosphino dipeptide isostere inhibitor of human beta-secretase (BACE1)” (Bioorg Med Chem, 2007):
*1 amine or outer side, *2 acyl side, *3 side chain or, on linkers, in order; H or OH if unused. Where a SMILES comes first, the peptide text is derived from it. [ ]: non-standard residue; d: D form. X3 = CC(C)C[C@@H](N[*:1])P(=O)(O)CC(C)C(=O)[*:2]; X1 = CC(C)C[C@H](N[*:1])P(=O)(O)CC(C)C(=O)[*:2]; X2 = CC(C)CC(N[*:1])P(=O)(O)CC(C)C(=O)[*:2]

Key:
Beta-secretase 1 = Beta-secretase 1 (Homo sapiens, UniProt P56817); assay: Inhibition of human BACE1 expressed in HEK293 cells; type: cell-based
Beta-secretase 1, sequence (P56817 whole entry): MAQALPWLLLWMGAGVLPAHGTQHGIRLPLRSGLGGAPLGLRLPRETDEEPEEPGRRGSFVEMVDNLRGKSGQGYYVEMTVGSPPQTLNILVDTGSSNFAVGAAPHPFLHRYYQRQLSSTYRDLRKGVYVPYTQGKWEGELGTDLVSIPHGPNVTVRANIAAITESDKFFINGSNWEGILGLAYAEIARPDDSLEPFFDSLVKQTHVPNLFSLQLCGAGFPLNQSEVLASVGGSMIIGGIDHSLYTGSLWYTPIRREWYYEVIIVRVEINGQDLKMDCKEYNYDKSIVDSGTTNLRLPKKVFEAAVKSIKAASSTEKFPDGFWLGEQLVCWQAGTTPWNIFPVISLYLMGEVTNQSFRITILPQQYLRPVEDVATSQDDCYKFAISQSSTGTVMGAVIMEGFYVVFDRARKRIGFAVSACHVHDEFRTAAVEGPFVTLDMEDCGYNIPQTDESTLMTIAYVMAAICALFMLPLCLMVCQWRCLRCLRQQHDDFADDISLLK

Beta-secretase 2 = target: T1, Beta-secretase 2 (Homo sapiens, UniProt Q9Y5Z0); assay: Inhibition of BACE2 expressed in HEK293 cells; type: cell-based
T1 sequence (Q9Y5Z0 whole entry): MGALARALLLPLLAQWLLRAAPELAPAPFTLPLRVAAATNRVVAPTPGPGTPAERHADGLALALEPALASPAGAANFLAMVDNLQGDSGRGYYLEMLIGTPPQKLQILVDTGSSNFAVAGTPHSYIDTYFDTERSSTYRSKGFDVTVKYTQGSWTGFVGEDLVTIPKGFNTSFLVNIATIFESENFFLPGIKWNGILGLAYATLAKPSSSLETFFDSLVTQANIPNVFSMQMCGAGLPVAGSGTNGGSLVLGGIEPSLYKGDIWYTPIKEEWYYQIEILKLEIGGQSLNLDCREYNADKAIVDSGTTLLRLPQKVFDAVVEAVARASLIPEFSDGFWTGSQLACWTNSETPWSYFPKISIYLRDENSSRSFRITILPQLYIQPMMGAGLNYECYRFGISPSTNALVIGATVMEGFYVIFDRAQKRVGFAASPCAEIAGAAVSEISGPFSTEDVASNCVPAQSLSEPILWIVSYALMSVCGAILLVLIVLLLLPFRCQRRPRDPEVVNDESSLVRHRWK

Cathepsin D = Cathepsin D (Homo sapiens, UniProt P07339); assay: Inhibition of cathepsin D expressed in HEK293 cells; type: cell-based
Cathepsin D, sequence (P07339 65-162 limits assumed): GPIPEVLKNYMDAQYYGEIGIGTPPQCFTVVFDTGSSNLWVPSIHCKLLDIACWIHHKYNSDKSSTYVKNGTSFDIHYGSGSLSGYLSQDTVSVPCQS
Cathepsin D, sequence (P07339 169-412 limits assumed): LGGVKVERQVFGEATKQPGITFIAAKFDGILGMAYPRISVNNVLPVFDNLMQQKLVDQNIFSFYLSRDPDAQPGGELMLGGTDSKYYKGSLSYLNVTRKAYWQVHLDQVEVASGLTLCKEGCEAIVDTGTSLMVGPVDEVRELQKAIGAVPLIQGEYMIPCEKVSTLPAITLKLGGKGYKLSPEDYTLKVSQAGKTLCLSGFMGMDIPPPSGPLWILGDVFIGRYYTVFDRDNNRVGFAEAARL

[1] = Inhibition of porcine pepsin; design: species or system Sus scrofa

Compound: CC(C)C[C@H](NC(=O)[C@@H](N)CCC(=O)O)C(=O)N[C@@H](CC(=O)O)C(=O)N[C@H](CC(C)C)P(=O)(O)CC(C)C(=O)N[C@H](C(=O)N[C@@H](CCC(=O)O)C(=O)N[C@@H](Cc1ccccc1)C(=O)O)C(C)C (stereo partly specified) (H-ELD[X3]VEF-OH)
- IC50 (Beta-secretase 1): 2020 nM

Compound: CC(C)C[C@H](NC(=O)[C@@H](N)CCC(=O)O)C(=O)N[C@@H](CC(=O)O)C(=O)N[C@@H](CC(C)C)P(=O)(O)CC(C)C(=O)N[C@H](C(=O)N[C@@H](CCC(=O)O)C(=O)N[C@@H](Cc1ccccc1)C(=O)O)C(C)C (stereo partly specified) (H-ELD[X1]VEF-OH)
- IC50 (Beta-secretase 2): 12 nM
- IC50 (Cathepsin D): 28 nM
- IC50 (Beta-secretase 1): 12 nM
- IC50 [1]: 8 nM

Compound: CC(C)CC(NC(=O)[C@H](CC(=O)O)NC(=O)[C@H](CC(C)C)NC(=O)[C@@H](N)CCC(=O)O)P(=O)(O)CC(C)C(=O)N[C@H](C(=O)N[C@@H](CCC(=O)O)C(=O)N[C@@H](Cc1ccccc1)C(=O)O)C(C)C (stereo partly specified) (H-ELD[X2]VEF-OH)
- IC50 (Beta-secretase 1): 675 nM
